Source: patent US11331369B2, “Endoparasitic depsipeptides” (Zoetis Services LLC, priority 2017, dated 2022)
Counter-ions that a name gives are not always drawn.

Experiments:
[1] = test system: third stage larvae of Haemonchus contortus; assay: Haemonchus contortus L3 (HcL3) Assay; type: cell-based; details: 96 h, read-out: HcL3 Minimum Effective Dose (MED)
[2] = test system: microfilariae of Dirofilaria immitis; assay: Dirofilaria immitis, Microfilaria (DiMF) In vitro Assay; type: cell-based; details: 72 h, read-out: DiMF Minimum Effective Dose (MED), approximately 72 hours incubation, microfilariae assessed for survival or paralysis

SMILES	minimal effective concentration [1] [µM]	minimal effective concentration [2] [µM]
CC(C)C[C@H]1C(=O)O[C@H](Cc2ccc(Cn3nc(CO)cc3C3CC3)cc2)C(=O)N(C)[C@@H](CC(C)C)C(=O)O[C@H](C)C(=O)N(C)[C@@H](CC(C)C)C(=O)O[C@H](Cc2ccc(Cn3nc(C#N)cc3C#N)cc2)C(=O)N(C)[C@@H](CC(C)C)C(=O)O[C@H](C)C(=O)N1C [Example 1a-10, 1-(4-(((2R,5S,8R,11S,14R,17S,20R,23S)-14-(4-((5-cyclopropyl-3-(hydroxymethyl)-1H-pyrazol-1-yl)methyl)benzyl)-5,11,17,23-tetraisobutyl-4,8,10,16,20,22-hexamethyl-3,6,9,12,15,18,21,24-octaoxo-1,7,13,19-tetraoxa-4,10,16,22-tetraazacyclotetracosan-2-yl)methyl)benzyl)-1H-pyrazole-3,5-dicarbonitrile]	1 to 10	0.001 to 0.01
CC(C)C[C@H]1C(=O)O[C@H](Cc2ccc(Cn3nc(C4CC4)cc3C3CC3)cc2)C(=O)N(C)[C@@H](CC(C)C)C(=O)O[C@H](C)C(=O)N(C)[C@@H](CC(C)C)C(=O)O[C@H](Cc2ccc(Cn3nc(CO)cc3C3CC3)cc2)C(=O)N(C)[C@@H](CC(C)C)C(=O)O[C@H](C)C(=O)N1C [Example 1a-14, (3S,6R,9S,12R,15S,18R,21S,24R)-6-(4-((5-cyclopropyl-3-(hydroxymethyl)-1H-pyrazol-1-yl)methyl)benzyl)-18-(4-((3,5-dicyclopropyl-1H-pyrazol-1-yl)methyl)benzyl)-3,9,15,21-tetraisobutyl-4,10,12,16,22,24-hexamethyl-1,7,13,19-tetraoxa-4,10,16,22-tetraazacyclotetracosan-2,5,8,11,14,17,20,23-octaone]	1 to 10	0.01 to 0.1
CC(C)C[C@H]1C(=O)O[C@H](Cc2ccc(Cn3cc(C(C)(C)C)cn3)cc2)C(=O)N(C)[C@@H](CC(C)C)C(=O)O[C@H](C)C(=O)N(C)[C@@H](CC(C)C)C(=O)O[C@H](Cc2ccc(Cn3cccn3)cc2)C(=O)N(C)[C@@H](CC(C)C)C(=O)O[C@H](C)C(=O)N1C [Example 1a-17, (3S,6R,9S,12R,15S,18R,21S,24R)-6-(4-((1H-pyrazol-1-yl)methyl)benzyl)-18-(4-((4-(tert-butyl)-1H-pyrazol-1-yl)methyl)benzyl)-3,9,15,21-tetraisobutyl-4,10,12,16,22,24-hexamethyl-1,7,13,19-tetraoxa-4,10,16,22-tetraazacyclotetracosan-2,5,8,11,14,17,20,23-octaone]	1 to 10	0.001 to 0.01
CC(C)C[C@H]1C(=O)O[C@H](Cc2ccc(Cn3nccc3OC(C)C)cc2)C(=O)N(C)[C@@H](CC(C)C)C(=O)O[C@H](C)C(=O)N(C)[C@@H](CC(C)C)C(=O)O[C@H](Cc2ccc(Cn3ccc(OC(C)C)n3)cc2)C(=O)N(C)[C@@H](CC(C)C)C(=O)O[C@H](C)C(=O)N1C [Example 1a-35, (3S,6R,9S,12R,15S,18R,21S,24R)-3,9,15,21-tetraisobutyl-6-(4-((3-isopropoxy-1H-pyrazol-1-yl)methyl)benzyl)-18-(4-((5-isopropoxy-1H-pyrazol-1-yl)methyl)benzyl)-4,10,12,16,22,24-hexamethyl-1,7,13,19-tetraoxa-4,10,16,22-tetraazacyclotetracosan-2,5,8,11,14,17,20,23-octaone]	1 to 10	0.01 to 0.1
Cc1cnn(Cc2ccc(C[C@H]3OC(=O)[C@H](CC(C)C)N(C)C(=O)[C@@H](C)OC(=O)[C@H](CC(C)C)N(C)C(=O)[C@@H](Cc4ccc(Cn5cc(C)cn5)cc4)OC(=O)[C@H](CC(C)C)N(C)C(=O)[C@@H](C)OC(=O)[C@H](CC(C)C)N(C)C3=O)cc2)c1 [Example 1b-24, (3S,6R,9S,12R,15S,18R,21S,24R)-3,9,15,21-tetraisobutyl-4,6,10,16,18,22-hexamethyl-12,24-bis[[4-[(4-methylpyrazol-1-yl)methyl]phenyl]methyl]-1,7,13,19-tetraoxa-4,10,16,22-tetrazacyclotetracosane-2,5,8,11,14,17,20,23-octaone]	1 to 10	0.001 to 0.01
Cc1cc(C)n(Cc2ccc(C[C@H]3OC(=O)[C@H](CC(C)C)N(C)C(=O)[C@@H](C)OC(=O)[C@H](CC(C)C)N(C)C(=O)[C@@H](Cc4ccc(Cn5nc(C)cc5C)cc4)OC(=O)[C@H](CC(C)C)N(C)C(=O)[C@@H](C)OC(=O)[C@H](CC(C)C)N(C)C3=O)cc2)n1 [Example 1b-29, (3S,6R,9S,12R,15S,18R,21S,24R)-6,18-bis[[4-[(3,5-dimethylpyrazol-1-yl)methyl]phenyl]methyl]-3,9,15,21-tetraisobutyl-4,10,12,16,22,24-hexamethyl-1,7,13,19-tetraoxa-4,10,16,22-tetrazacyclotetracosane-2,5,8,11,14,17,20,23-octaone]	1 to 10	0.001 to 0.01
COc1cnn(Cc2ccc(C[C@H]3OC(=O)[C@H](CC(C)C)N(C)C(=O)[C@@H](C)OC(=O)[C@H](CC(C)C)N(C)C(=O)[C@@H](Cc4ccc(Cn5cc(OC)cn5)cc4)OC(=O)[C@H](CC(C)C)N(C)C(=O)[C@@H](C)OC(=O)[C@H](CC(C)C)N(C)C3=O)cc2)c1 [Example 1b-52, (3S,6R,9S,12R,15S,18R,21S,24R)-3,9,15,21-tetraisobutyl-6,18-bis(4-((4-methoxy-1H-pyrazol-1-yl)methyl)benzyl)-4,10,12,16,22,24-hexamethyl-1,7,13,19-tetraoxa-4,10,16,22-tetraazacyclotetracosan-2,5,8,11,14,17,20,23-octaone]	1 to 10	0.001 to 0.01
CC(C)C[C@H]1C(=O)O[C@H](Cc2ccc(CN3CCNc4ccccc43)cc2)C(=O)N(C)[C@@H](CC(C)C)C(=O)O[C@H](C)C(=O)N(C)[C@@H](CC(C)C)C(=O)O[C@H](Cc2ccc(CN3CCNc4ccccc43)cc2)C(=O)N(C)[C@@H](CC(C)C)C(=O)O[C@H](C)C(=O)N1C [Example 9-69, (3S,6R,9S,12R,15S,18R,21S,24R)-6,18-bis[[4-(3,4-dihydro-2H-quinoxalin-1-ylmethyl)phenyl]methyl]-3,9,15,21-tetraisobutyl-4,10,12,16,22,24-hexamethyl-1,7,13,19-tetraoxa-4,10,16,22-tetrazacyclotetracosane-2,5,8,11,14,17,20,23-octaone dihydrochloride]	10 to 100	–
CC(C)C[C@H]1C(=O)O[C@H](Cc2ccc(CN3CCOCC3)cc2)C(=O)N(C)[C@@H](CC(C)C)C(=O)O[C@H](C)C(=O)N(C)[C@@H](CC(C)C)C(=O)O[C@H](Cc2ccccc2)C(=O)N(C)[C@@H](CC(C)C)C(=O)O[C@H](C)C(=O)N1C [Example 10-6, (3S,6R,9S,12R,15S,18R,21S,24R)-6-benzyl-3,9,15,21-tetraisobutyl-4,10,12,16,22,24-hexamethyl-18-(4-(morpholinomethyl)benzyl)-1,7,13,19-tetraoxa-4,10,16,22-tetraazacyclotetracosan-2,5,8,11,14,17,20,23-octaone]	1 to 10	–
